Data: paper PMC6580371 (ACS Medicinal Chemistry Letters, 2019)
Like-named read-outs stand apart in the source and are kept apart here.

How the values were obtained:
[1] = assay type: in vitro ADME; settings: human
[2] = assay type: in vivo; settings: all species (rat, dog, monkey)
[3] = assay type: in vitro ADME; settings: rat
[4] = assay type: in vitro ADME; settings: monkey
in vivo [5] = settings: dog, po, 2 mg/kg
in vivo [6] = settings: monkey, iv

O=C(N[C@H]1CCc2cc(F)cc(F)c2NC1=O)c1n[nH]c(Cc2ccccc2)n1 [Compound 6, (S)-5-benzyl-N-(7,9-difluoro-2-oxo-2,3,4,5-tetrahydro-1H-benzo[b]azepin-3-yl)-1H-1,2,4-triazole-3-carboxamide]
turnover in hepatocytes [1]: low turnover | clearance as % liver blood flow [2]: ≤ 35 % liver blood flow | turnover in hepatocytes [3]: moderate turnover | turnover in hepatocytes [4]: low turnover | Cmax (in vivo [5]): 910 ± 130 ng/mL | clearance (in vivo [6]): 6.4 ± 0.5 mL/min/kg | predicted human clearance: low clearance | predicted human volume: moderate volume | predicted human AUC (40 mg twice daily): 1700 ng·h/mL | predicted human AUC (273 mg daily): 11700 ng·h/mL | predicted human terminal half-life (human): ~3.3 h
